Calls of active or inactive are those of the source. The rule behind the calls is not given here.
How the values were obtained:
[1] = tested on: NCI-H460; test: Cytotoxicity against human NCI-H460 cells at 4 ug/mL after 72 hrs by MTT assay; type: cell-based; settings: nci-h460, 72 h
[2] = tested on: MIA PaCa-2; test: Cytotoxicity against human MIAPaCa2 cells at 4 ug/mL after 72 hrs by MTT assay; type: cell-based; settings: mia paca-2, 72 h
[3] = tested on: MCF7; test: Cytotoxicity against human MCF7 cells at 4 ug/mL after 72 hrs by MTT assay; type: cell-based; settings: mcf7, 72 h
[4] = tested on: SF-268; test: Cytotoxicity against human SF268 cells at 4 ug/mL after 72 hrs by MTT assay; type: functional, cell-based
[5] = tested on: NCI-H460; test: Cytotoxicity against human NCI-H460 cells at 2 ug/mL after 72 hrs by MTT assay; type: cell-based; settings: nci-h460, 72 h
[6] = tested on: MIA PaCa-2; test: Cytotoxicity against human MIAPaCa2 cells at 2 ug/mL after 72 hrs by MTT assay; type: cell-based; settings: mia paca-2, 72 h
[7] = tested on: MCF7; test: Cytotoxicity against human MCF7 cells at 2 ug/mL after 72 hrs by MTT assay; type: cell-based; settings: mcf7, 72 h
[8] = tested on: SF-268; test: Cytotoxicity against human SF268 cells at 2 ug/mL after 72 hrs by MTT assay; type: functional, cell-based
[9] = tested on: NCI-H460; test: Cytotoxicity against human NCI-H460 cells after 72 hrs by MTT assay; type: cell-based; settings: NCI-H460, 72 h
[10] = tested on: MIA PaCa-2; test: Cytotoxicity against human MIAPaCa2 cells after 72 hrs by MTT assay; type: cell-based; settings: MIA PaCa-2, 72 h
[11] = tested on: MCF7; test: Cytotoxicity against human MCF7 cells after 72 hrs by MTT assay; type: cell-based; settings: MCF7, 72 h
[12] = tested on: SF-268; test: Cytotoxicity against human SF268 cells after 72 hrs by MTT assay; type: functional, cell-based; settings: SF-268, 72 h
[13] = Inhibition of cell proliferation in PC3M cells after 20 hrs by MTT assay; type: functional, cell-based; settings: Homo sapiens, PC-3M
[14] = tested on: MDA-MB-231; test: Inhibition of cell proliferation in MDA-MB-231 cells after 40 hrs by MTT assay; type: functional, cell-based; settings: Homo sapiens, MDA-MB-231, 40 h
[15] = tested on: HUVEC; test: Antiangiogenic activity in HUVEC-2 cells assessed as inhibition of endothelial cell network formation after 16 hrs at 3 uM; type: functional, cell-based; settings: Homo sapiens
[16] = Antiangiogenic activity in HUVEC-2 cells assessed as inhibition of endothelial cell network formation after 16 hrs; type: functional, cell-based; settings: Homo sapiens

## COC1=CC(=O)c2c(cc3oc4cc(OC)cc(C)c4c(=O)c3c2O)C1=O
[1]
  Activity: Not Active
[2]
  Activity: Not Active
[3]
  Activity: Not Active
[4]
  Activity: inactive
[5]
  Activity: Not Active
[6]
  Activity: Not Active
[7]
  Activity: Not Active
[8]
  Activity: inactive

## CC(C)[C@@H]1OC(=O)[C@@H](Cc2ccccc2)N(C)C(=O)[C@H](C(C)C)OC(=O)[C@@H](Cc2ccccc2)N(C)C(=O)[C@H](C(C)C)OC(=O)[C@@H](Cc2ccccc2)N(C)C1=O [BEAUVERICIN]
[9]
  IC50: 1410 nM
[10]
  IC50: 1660 nM
[11]
  IC50: 1810 nM
[12]
  IC50: 2290 nM
[13]
  IC25: 2300 nM
  IC50: 3800 nM
[14]
  IC25: 6400 nM
  IC50: 7500 nM
[15]
  Activity: Active
[16]
  IC25: 5000 nM
  IC50: 7500 nM

## COC1=CC(=O)c2c(c(O)c3oc4cc(OC)cc(C)c4c(=O)c3c2O)C1=O [BIKAVERIN]
[9]
  IC50: 430 nM
[10]
  IC50: 260 nM
[11]
  IC50: 420 nM
[12]
  IC50: 380 nM

## COc1cccc2c1C(=O)c1c(O)c3c(c(O)c1C2=O)C[C@@](O)(C(=O)CO)C[C@@H]3O[C@H]1C[C@H](N)[C@H](O)[C@H](C)O1 [DOXORUBICIN]
[9]
  IC50: 10 nM
[10]
  IC50: 50 nM
[12]
  IC50: 40 nM
